Measured values taken from article PMC10826971, “Evaluating protein cross-linking as a therapeutic strategy to stabilize SOD1 variants in a mouse model of familial ALS” (PLOS Biology, 2024).
“And” between values parts separate entries of the source, which are not always exact repeats. Identical values can stand only once. “Also recorded” adds a separate entry of the source. Like-named read-outs stand apart in the source and are kept apart here.

What was measured:
B6SJL G93A mice = experiment: Survival study, hybrid B6SJL G93A mice, S-XL6 SC 20 then 50 mg/kg once a day Monday to Friday; format: in vivo, mouse
Description: Two fALS lines were used to assess survival in genetic backgrounds with different disease severity. […] Dose and dose regimen were estimated from the blood PK/PD profile and BBB penetration described above. A subcutaneous (SC) route of administration was chosen because in our hands it results in more precise delivery. […] In both studies, mice were gender and littermate matched and non ALS-related deaths were excluded. We are currently developing the methods necessary for quantifying copy number and cannot rule out reduced SOD1 expression as having contributed to the survival benefit in treated B6 G93A mice.
The first line was derived by crossing (over >10 generations) congenic fALS “B6 G93A mice” (B6.Cg-Tg(SOD1*G93A)1Gur/J, Stock No. 004435, The Jackson Laboratory, Bar Harbor, Maine, USA) with “YFP-16 mice” [50] (B6.Cg-Tg(Thy1-YFP)16Jrs/J, Stock No. 003709, The Jackson Laboratory, Bar Harbor, Maine, USA). This line maintains the C57BL/6J genetic background and expresses YFP in motor and sensory neurons to enable cellular-level molecular profiling in future studies. The second line is the standard “Hybrid B6SJL G93A mice” (B6SJL-Tg(SOD1*G93A)1Gur/J Stock No. 002726, The Jackson Laboratory, Bar Harbor, Maine, USA). Methods for survival studies have been described and followed the conventions for optimal trial design with fALS mice. Mice were tested for difference in: (1) disease onset (at least a 20% decrease in grip strength and open-field motor performance, which we expect to correlate with change in weight); (2) disease end-stage (disease score, e.g., loss of righting reflex); and (3) weight. The hybrid line was additionally tested for differences in forelimb and hindlimb grip strength.

[1] = Relative cell viability of transfected NSC-34 cells; format: cell-based, mouse; details: mouse, 48 h, replicates
Protocol: (§1) Transfected NSC-34 cells were plated out into 96-well plates and left overnight. […] Cells were then fixed using 4% (w/v) paraformaldehyde in 1×PBS for 20 min. Plates for imaging were then processed as previously described with some changes. Cells were imaged using a DMi8 epifluorescent microscope (Leica, Germany) fitted with a Mercury Arc Lamp, a 10× 0.25NA (CAT NO) air objective and an automated stage. A software-based autofocus strategy was utilized to focus on the GFP signal within cells, with a subsequent image being taken in the DAPI channel to view Hoescht-stained nuclei. Relative focus correction was applied between channels to offset emission wavelength effects to the focal plane. Following image acquisition, images were corrected for illumination variation via a background method and processed using a combination of FIJI [66], StarDist, CellProfiler, and CellProfiler Analyst as previously described.
(§2) Image set data taken from the previous inclusion formation assay were used to examine both relative cell viability and relative levels of SOD1-EGFP. To determine relative viability, we extracted the total number of transfected cells in each treatment group and normalized the values to the untreated group to determine the relative number of cells at assay endpoint.

[2] = system: NSC-34 cells expressing EGFP-WT-SOD1; experiment: as above; format: cell-based, mouse; details: for Viability %: WT, 48 h, replicates
Protocol: as §1, §2

[3] = system: NSC-34 cells expressing EGFP-G93A; experiment: as above; format: cell-based, mouse; details: for Viability %: G93A, 48 h, replicates
Protocol: as §1, §2

SOD1^G93A = SOD1^G93A (Homo sapiens, UniProt P00441, G94A); experiment: Small-angle x-ray solution scattering (SAXS); design: made in house; host or cells: EGy118ΔSOD1 yeast, YEp351 expression vector; details: GNOM; untreated over 200 Å
Protocol: SAXS data were collected at the G1 beamline at Cornell High Energy Synchrotron Source (CHESS). For each sample, 2 measurements were taken, one of the protein with buffer and one with buffer by itself. Solution scattering data were captured every second for 10 frames. The 10 frames of both buffer and protein were then averaged and the buffer was subtracted out to get the scattering for the protein. Samples were run in a 96-well plate and held at 4°C continuously. Data collection was in the scattering angle (q) range of 0.008 to 0.71 Å^-1 and processed using the software, RAW.
Control sample contained 5% MeOH (final conc. 2.5%). Samples were then incubated at 37°C for 6 h to ensure complete cross-linking. After incubation, excess compound was buffer exchanged out of each sample using a 10 kDa MWCO ultrafiltration device, and 320 μL is diluted to 15 mL into HEPES buffer, spun down to approximately 500 μL, and resuspended in another 15 mL of HEPES buffer. After the final spin, samples were removed and concentrated in a smaller ultrafiltration device and brought to approximately 70 μL final volume (4.7 μm). Samples were flash frozen and stored at –80°C prior to analysis.
The GNOM program was used to evaluate the pair distribution plot using an indirect Fourier transform. […]

[4] = format: in vitro ADME; details: human; for plasma protein binding assay readout (Fig 6C): 50 uM
Description: Fig 6 Cross-linking at sub-toxic concentrations within cells. […] Results are shown as percentage of viable cells compared to a vehicle control. Note: cell viability <70% (dotted line) is generally considered as the threshold for cytotoxicity, and viabilities >100% indicate a trophic effect. Controls included EMEM with 0.1% DMSO (dimethyl sulfoxide, negative control) and 500 μm of chlorpromazine (positive control). […] The data underlying this figure can be found in S1 Data. LC-MS/MS, liquid chromatography-tandem mass spectrometry; MS, mass spectrometry; SOD1, superoxide dismutase 1.

Chain of SOD1^G93A (P00441 2-154 G94A limits assumed): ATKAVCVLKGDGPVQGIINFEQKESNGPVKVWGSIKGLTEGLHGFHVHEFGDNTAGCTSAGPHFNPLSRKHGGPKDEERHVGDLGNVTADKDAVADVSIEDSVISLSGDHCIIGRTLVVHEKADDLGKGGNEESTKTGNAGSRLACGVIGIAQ

[O-][S+]1CCCCS1 (stereo not shown) [S-XL6, 1,2-dithiane-1-oxide]
survival benefit (B6SJL G93A mice; 50 mg/kg SC once a day, Monday to Friday, from day 70): no survival benefit; also recorded: No survival improvement
Age (wks) (B6SJL G93A mice; individual mice, Tx D (dosed), age at end-stage, found dead or sacrifice): 17.7143 wks and 17.5714 wks and 17.8571 wks and 15.5714 wks and 18.7143 wks and 17.4286 wks and 16.1429 wks and 18 wks and 15.8571 wks and 17.1429 wks
Age (B6SJL G93A mice; individual mice, Tx D (dosed), age at end-stage, found dead or sacrifice (131-day mice sac'd for tissue)): 124 days and 123 days and 125 days and 109 days and 131 days and 122 days and 113 days and 126 days and 111 days and 120 days
viability at 48 h, 5 µM ([1]; NSC-34 cells expressing EGFP-G93A, G93A, 5 uM): 96%
viability at 48 h, 10 µM ([1]; NSC-34 cells expressing EGFP-G93A, G93A, 10 uM): 97.2%
viability at 48 h, 20 µM ([1]; NSC-34 cells expressing EGFP-G93A, G93A): 83%
viability at 48 h, 20 µM ([1]; NSC-34 cells expressing EGFP-WT-SOD1, WT): 109%
viability of cells expressing EGFP-labeled wild-type SOD1 [2]: did not affect the viability
Viability % ([2]; 5 uM): 118.019% and 98.8542% and 94.2887% and 103.364% and 96.0765%
Viability % ([2]; 10 uM): 120.286% and 102.188% and 99.0654% and 102.243% and 98.2897%
Viability % ([2]; 20 uM): 91.25% and 91.5888% and 93.8838% and 89.0342%
survival/viability of cells expressing EGFP-labeled G93A [3]: did not affect
Viability % ([3]; 5 uM): 106.323% and 98.5697% and 106.015% and 108.827%
Viability % ([3]; 10 uM): 107.355% and 99.404% and 108.897% and 105.562%
Viability % ([3]; 20 uM): 94.1936% and 84.8629% and 91.604% and 88.2709%
Dmax of SOD1^G93A with S-XL6 (SOD1^G93A): approximately 79 Å
plasma protein binding assay readout (Fig 6C) [4]: 79%
plasma protein binding ([4]; plasma): no binding
plasma protein binding assay readout (Fig 6C) ([4]; plasma): 144%
